Legend:
h-TGR5 = target: T1, h-TGR5 (Homo sapiens, UniProt Q8TDU6); experiment: TGR5 cAMP Assay using Cisbio cAMP Dynamic 2 htrf assay kit; type: cell-based; conditions: hTGR5CRE-luc HEK 293 cells
T1 sequence (Q8TDU6 1-330): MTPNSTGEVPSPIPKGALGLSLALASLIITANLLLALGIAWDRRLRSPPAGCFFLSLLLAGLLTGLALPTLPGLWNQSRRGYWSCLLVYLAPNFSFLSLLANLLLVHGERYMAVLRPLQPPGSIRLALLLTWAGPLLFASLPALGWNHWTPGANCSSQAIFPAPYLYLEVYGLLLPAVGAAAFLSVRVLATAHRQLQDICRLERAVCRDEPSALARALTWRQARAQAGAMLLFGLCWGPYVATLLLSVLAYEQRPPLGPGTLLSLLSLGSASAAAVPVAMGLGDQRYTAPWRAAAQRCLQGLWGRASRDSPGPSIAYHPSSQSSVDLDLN

human TGR5 (h-TGR5) = target: T2, human TGR5 (h-TGR5) (Homo sapiens, UniProt Q8TDU6); experiment: TGR5/CRE-Luciferase Assay; type: cell-based; conditions: HEK 293 hTGR5/CRE-Luc cells, 6 hours incubation, read-out: CRE-Luc Agonist (EC50)
T2 sequence (Q8TDU6 1-330): T1 sequence (Q8TDU6 1-330)
In short: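 HEK 293 CRE-Luciferase cells stably expressing the receptor, plated in DMEM 18-20 h before assay, then exposed to serially diluted compounds (DMEM with 5% DMSO) for 6 h. Luciferase read-out after lysis; EC50 from dose-response.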

Compound	EC50 (h-TGR5) [µM]	EC50 (human TGR5 (h-TGR5)) [µM]
COc1cc(C(C)(C)c2cnc(SCc3c(F)cc(S(=O)(=O)N(C)[C@H](CCC[N+](C)(C)C)C(=O)O)cc3Cl)n2-c2ccc(F)cc2)ccc1Cl [Compound 17d, (R)-4-carboxy-4-(3-chloro-4-((5-(2-(4-chloro-3-methoxyphenyl)propan-2-yl)-1-(4-fluorophenyl)-1H-imidazol-2-ylthio)methyl)-5-fluoro-N-methylphenylsulfonamido)-N,N,N-trimethylbutan-1-aminium 2,2,2-trifluoroacetate]	< 0.1	< 0.1
COc1cc(C(C)(C)c2cnc(SCc3c(F)cc(S(=O)(=O)N4CCC(C[N+](C)(C)C)(C(=O)O)CC4)cc3F)n2-c2ccc(F)cc2)ccc1Cl [Compound 11x, (4-carboxy-1-{[4-({[5-{1-[4-chloro-3-(methyloxy)phenyl]-1-methylethyl}-1-(4-fluorophenyl)-1H-imidazol-2-yl]thio}methyl)-3,5-difluorophenyl]sulfonyl}piperidin-4-yl)-N,N,N-trimethylmethanaminium]	< 0.1	< 0.1
COc1cc(C(C)(C)c2cnc(SCc3c(F)cc(S(=O)(=O)N(CCCO)CCC[N+](C)(C)C)cc3F)n2-c2ccc(F)cc2)ccc1Cl [Compound 12g, 3-(4-((5-(2-(4-chloro-3-methoxyphenyl)propan-2-yl)-1-(4-fluorophenyl)-1H-imidazol-2-ylthio)methyl)-3,5-difluoro-N-(3-hydroxypropyl)phenylsulfonamido)-N,N,N-trimethylpropan-1-aminium 2,2,2-trifluoroacetate]	< 0.1	< 0.1
COc1cc(-n2c(C(C)(C)c3ccc(F)c(Cl)c3)cnc2SCc2c(F)cc(CCC[N+](C)(C)C)cc2F)ccc1F [Compound 19b, 3-(4-((5-(2-(3-chloro-4-fluorophenyl)propan-2-yl)-1-(4-fluoro-3-methoxyphenyl)-1H-imidazol-2-ylthio)methyl)-3,5-difluorophenyl)-N,N,N-trimethylpropan-1-aminium 2,2,2-trifluoroacetate]	< 0.1	< 0.1
COc1cc(C(C)(C)c2cnc(SCc3c(F)cc(S(=O)(=O)N4CC[C@H]([N+](C)(C)C)C4)cc3Cl)n2-c2ccc(F)cc2)ccc1Cl [Compound 11l, (3S)-1-{[3-chloro-4-({[5-{1-[4-chloro-3-(methyloxy)phenyl]-1-methylethyl}-1-(4-fluorophenyl)-1H-imidazol-2-yl]thio}methyl)-5-fluorophenyl]sulfonyl}-N,N,N-trimethylpyrrolidin-3-aminium]	< 0.1	< 0.1

The remaining lines, values ahead:

EC50 (h-TGR5) [µM]	EC50 (human TGR5 (h-TGR5)) [µM]	Compound
< 0.1	< 0.1	COc1cc(C(C)(C)c2cnc(SCc3c(F)cc(S(=O)(=O)N(CCCCC[N+](C)(C)C)[C@H](C)C(=O)O)cc3Cl)n2-c2ccc(F)cc2)ccc1Cl [Compound 14ad, 5-([(1R)-1-carboxyethyl]{[3-chloro-4-({[5-{1-[4-chloro-3-(methyloxy)phenyl]-1-methylethyl}-1-(4-fluorophenyl)-1H-imidazol-2-yl]thio}methyl)-5-fluorophenyl]sulfonyl}amino)-N,N,N-trimethylpentan-1-aminium]
< 0.1	< 0.1	COc1cc(C(C)(C)c2cnc(SCc3c(F)cc(S(=O)(=O)N(CCC[N+](C)(C)C)[C@H](C)C(=O)O)cc3Cl)n2-c2ccc(F)cc2)cc(F)c1F [Compound 14c, (R)-3-(N-(1-carboxyethyl)-3-chloro-4-((5-(2-(3,4-difluoro-5-methoxyphenyl)propan-2-yl)-1-(4-fluorophenyl)-1H-imidazol-2-ylthio)methyl)-5-fluorophenylsulfonamido)-N,N,N-trimethylpropan-1-aminium 2,2,2-trifluoroacetate]
< 0.1	< 0.1	COc1cc(C(C)(C)c2cnc(SCc3c(F)cc(S(=O)(=O)N(C)[C@@H](CCC[N+](C)(C)C)C(=O)O)cc3Cl)n2-c2ccc(F)cc2)ccc1Cl [Compound 17b, (S)-4-carboxy-4-(3-chloro-4-((5-(2-(4-chloro-3-methoxyphenyl)propan-2-yl)-1-(4-fluorophenyl)-1H-imidazol-2-ylthio)methyl)-5-fluoro-N-methylphenylsulfonamido)-N,N,N-trimethylbutan-1-aminium 2,2,2-trifluoroacetate]
< 0.1	< 0.1	2-({[3-chloro-5-fluoro-4-({[5-{1-[4-fluoro-3-(methyloxy)phenyl]-1-methylethyl}-1-(4-fluorophenyl)-1H-imidazol-2-yl]thio}methyl)phenyl]carbonyl}amino)-N,N,N-trimethylethanaminium [Example 1d]
< 0.1	< 0.1	COc1cc(-n2c(C(C)(C)c3ccc(S(N)(=O)=O)c(Cl)c3)cnc2SCc2c(F)cc(C(=O)NCC[N+](C)(C)C)cc2Cl)ccc1F [Example 1a, 2-{[(4-{[(5-{1-[4-(aminosulfonyl)-3-chlorophenyl]-1-methylethyl}-1-[4-fluoro-3-(methyloxy)phenyl]-1H-imidazol-2-yl)thio]methyl}-3-chloro-5-fluorophenyl)carbonyl]amino}-N,N,N-trimethylethanaminium]
< 0.1	< 0.1	COc1cc(C(C)(C)c2cnc(SCc3c(F)cc(S(=O)(=O)N(CCC[N+]45CCN(CC4)CC5)[C@H](C)C(=O)O)cc3F)n2-c2ccc(F)cc2)ccc1Cl [Compound 22, (R)-1-(3-(N-(1-carboxyethyl)-4-((5-(2-(4-chloro-3-methoxyphenyl)propan-2-yl)-1-(4-fluorophenyl)-1H-Imidazol-2-ylthio)methyl)-3,5-difluorophenylsulfonamido)propyl)-4-aza-1-azoniabicyclo[2.2.2]octane chloride]
